Common to all, as to assay type: cell-based
The target of assay [1] is T1, GPR139 E108Q3x32 (Homo sapiens, UniProt Q6DWJ6, E108Q).
T1 construct: mGluR5 signal peptide (N); expressed in transfected cells; host or cells: HEK293
T1 sequence (Q6DWJ6 2-353 E108Q limits assumed): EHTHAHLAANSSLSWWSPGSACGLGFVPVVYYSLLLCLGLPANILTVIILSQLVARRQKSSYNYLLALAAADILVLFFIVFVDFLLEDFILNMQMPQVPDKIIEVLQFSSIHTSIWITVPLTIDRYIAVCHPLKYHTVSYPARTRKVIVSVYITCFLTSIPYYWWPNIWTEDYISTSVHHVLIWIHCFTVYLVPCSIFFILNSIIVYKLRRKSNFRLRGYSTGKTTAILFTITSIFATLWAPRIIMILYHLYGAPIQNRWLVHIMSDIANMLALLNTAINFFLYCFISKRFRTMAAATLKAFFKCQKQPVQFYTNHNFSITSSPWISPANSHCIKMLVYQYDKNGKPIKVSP
As to the kind of experiment: Fluo-4 Ca2+-assay, GPR139 mutant E108Q. From the text: (§1) To study the influence of specific amino acids in the predicted binding pocket on receptor function, the desired mutations were introduced into an N-terminally c-myc-tagged wild type human GPR139 (NM_001002911.3) in the pEGFP-N1 vector (BD Biosciences)[32], [33]. As previously described, these plasmids carry the signal peptide of mGluR5 to promote cell surface expression followed by a c-myc epitope to enable detection of total and surface expression by ELISA, followed by an engineered MluI and NotI site for easy insertion of the receptor of interest. Furthermore, the start-codon in the GPR139 sequence was deleted to ensure c-myc-tagging. Mutagenesis was designed in Serial Cloner 2.6 (© Franck Perez [SerialBasics]) and carried out by GenScript (USA). All mutated residues are illustrated in Supplementary Fig. 1b. An untagged GPR139(WT) in pEGFP-N1 was also generated to ensure that the c-myc-tag had no influence on GPR139(WT) function.
All GPR139 mutants were transfected into HEK293 cells. The HEK293 cells were grown in Dulbecco’s modified Eagle’s medium (DMEM) (Gibco, 41965) supplemented with 10% dialyzed fetal bovine serum (Gibco, 26400, United States origin), 100 units/mL penicillin and 100 μg/mL streptomycin (Gibco, 15140). HEK293 cells were reverse transfected using Lipofectamine2000 (Invitrogen). […]
(§2) The Ca^2+ measurements were preformed using the Fluo-4 NW Calcium Assay Kit (Invitrogen, Molecular Probes, F36206) as previously described. […] Intracellular calcium changes were recorded as indicated on either a NOVOstar (BMG Labtech) at 37 °C with an excitation filter of 485 nm and an emission filters 520 nm or a FlexStation 3 Benchtop Multi-Mode Microplate Reader (Molecular Devices) at 37 °C with an excitation wavelength of 485 nm and emission of 525 nm.
(§3) All pharmacological data have been analyzed by using Prism 6.0 (GraphPad Software Inc., San Diego). […] Changes in potency (pEC50) and span of myc-GPR139(WT) in comparison to untagged GPR139(WT) was statistically analyzed with a paired t-test and significance was accepted at p < 0.05. […]

In assay [2] the target is T2, GPR139 E108A3x29 +E105A3x32 (Homo sapiens, UniProt Q6DWJ6, E105A/E108A).
T2 construct: mGluR5 signal peptide (N); expressed in transfected cells; host or cells: HEK293
T2 sequence (Q6DWJ6 2-353 E105A/E108A limits assumed): T1 sequence (Q6DWJ6 2-353 E108Q limits assumed) with E104A, Q107A
Kind of assay: Fluo-4 Ca2+-assay, GPR139 double mutant E105A_E108A.
Description: as §1, with “Mutagenesis was designed in Serial Cloner 2.6 (© Franck Perez [SerialBasics]) and carried out by GenScript (USA). All mutated residues are illustrated in Supplementary Fig. 1b. An untagged GPR139(WT) in pEGFP-N1 was also generated to ensure that the c-myc-tag had no influence on GPR139(WT) function.” left out
as §2, §3

Assay [3] addresses T3, GPR139 H251A6x58 (Homo sapiens, UniProt Q6DWJ6, H251A).
T3 construct: mGluR5 signal peptide (N); expressed in transfected cells; host or cells: HEK293
T3 sequence (Q6DWJ6 2-353 H251A limits assumed): T1 sequence (Q6DWJ6 2-353 E108Q limits assumed) with Q107E, H250A
As to the kind of experiment: Fluo-4 Ca2+-assay, GPR139 mutant H251A.
Description: as §1, with “Mutagenesis was designed in Serial Cloner 2.6 (© Franck Perez [SerialBasics]) and carried out by GenScript (USA). All mutated residues are illustrated in Supplementary Fig. 1b. An untagged GPR139(WT) in pEGFP-N1 was also generated to ensure that the c-myc-tag had no influence on GPR139(WT) function.” left out
as §2, §3

Residue numbers refer to the chain shown, from its start.

Data on 1 molecule can be found in article PMC5430874 (Scientific Reports, 2017).

For orientation: EC50 means the concentration that produces a half-maximal response. In general, Emax refers to the maximal effect, on the per cent scale that the assay sets.

Consider `COc1cc(OC)cc(C(=O)NNC(=O)Nc2cccc3ccccc23)c1` [Compound 1a], for which the EC50 in assay [1] (E108Q mutant) is 1.51 µM; in assay [2] it was 0.2 µM; in assay [3] (H251A mutant), 0.813 µM. Also, the potency reduction in assay [1] (E108Q mutant versus WT) was determined as 6 fold. Besides, the Emax is 217 ± 21% in assay [1] (E108Q, normalized to buffer (0%) and 8 µM 1a (100%)); 196 ± 25% in assay [2] (normalized to buffer (0%) and 8 µM 1a (100%)); 84 ± 11% in assay [3] (H251A, normalized to buffer (0%) and 8 µM 1a (100%)).
